For series [1], the target named is rhodopsin (isorhodopsin) dimerization (Homo sapiens, UniProt P08100). Briefly: rhodopsin dimerization BRET assay in HEK293 opsin-Rluc/opsin-Venus cells. The following applies: HEK293 opsin-Rluc/opsin-Venus cells regenerated with 9-cis-retinal; triplicates; read from Fig. 3B,E. Format: cell-based. Also on record: expressed in transfected cells; host or cells: HEK293 (human embryonic kidney 293) opsin-Rluc / opsin-Venus cell lines. The source says:
To identify small molecules that target rhodopsin dimerization, a cell-based high-throughput screening (HTS) assay was used to screen a diverse library of 50,000 compounds from Life Chemicals. The human osteosarcoma (U2OS) stable cell line was used, which expresses opsin fused with complimentary subunits of β-galactosidase (β-gal), namely, the enzyme acceptor large β-gal subunit (EA) and the enzyme donor, small subunit of β-gal (PK). Upon rhodopsin self-association in vitro, a competent β-gal was formed and chemiluminescent signal was generated in the presence of β-gal substrate (Fig. 1A). For further validation, the β-gal activity assay was used to counter-screen and rule out false positives, affecting the activity of β-gal without affecting rhodopsin (Fig. 1B) ([34]). In an orthogonal assay, rhodopsin dimerization was assessed using a bioluminescence resonance energy transfer (BRET) assay with human embryonic kidney 293 cells expressing opsin fused with Renilla luciferase and opsin fused with Venus (Fig. 1C) ([35], [36]). To form functional visual pigment, opsin-fused proteins were regenerated with 9-cis-retinal to form so-called isorhodopsin ([37]). We chose 9-cis-retinal over photoreceptor-endogenous 11-cis-retinal because of its availability and the prohibitive cost for HTS assays with the native chromophore. Rhodopsin and isorhodopsin have similar biochemical and spectral properties (see ([38])).
Identified hits from the β-gal complementation assay were subjected to the previously developed BRET assay, using human embryonic kidney 293 opsin–Renilla luciferase and opsin-Venus cell lines ([37]). Cultured cells were diluted to 2 × 10^5 cells/ml in the medium containing 10% fetal bovine serum (Thermo Fisher Scientific) and 1% penicillin-streptomycin (10,000 U/ml; Thermo Fisher Scientific), and 20 μl/well of the cell diluent was dispensed into a white ViewPlate-384 (PerkinElmer). Cells were cultured overnight at 37 °C in 5% CO2, and under a dim red light, cells were treated with 9-cis-retinal at 7.5 μM final concentration. The next day, cells were treated with the identified hit compounds from the β-gal complementation assay at 180 μM down to 2.4 nM concentrations, and 1 μM final concentration of TM5 peptide ([…]-NH2; EZBiolab) serving as the control. On the following day, the culture medium was aspirated and replaced with 90 μl/well of PBS containing pivaloyloxymethyl acetoxycoelenterazine h (Dalton Research Molecules) at 600 μM concentration followed by incubation at 20 °C for 40 min ([35]). Dual luminescence readings at 480 and 530 nm were performed using a SpectraMax L plate reader with the BRET1 filter set (Molecular Devices).
A general note: Bioluminescence resonance energy transfer reports proximity on the nanometre scale.

Series [2] concerns rod photoreceptors of isolated mouse retinas. Briefly: ex vivo ERG of isolated mouse retinas (rod light responses). The following applies: 250 μM compound. It is filed as cell-based, mouse (C57BL/6J). An excerpt:
We determined the impact of compound #7 (representative disrupter of rhodopsin dimerization) and compound #1 (representative enhancer) on the sensitivity and kinetics of rod light responses, using ex vivo electroretinogram (ERG) analysis of isolated mouse retinas (Experimental procedures). This technique allows robust recordings from intact retinas and is well suited for quantitative investigation of mouse phototransduction ([48], [49], [50], [51], [52], [53]).
Ex vivo ERG recordings were conducted with isolated retinas of C57Bl/6J mice, as described ([41], [62], [63]). Mice were dark-adapted overnight and euthanized by CO2 asphyxiation, and whole retinas were dissected under dim red light. Before recordings, retinas were incubated for 5 h in Ames’ medium (Sigma-Aldrich) inside a light-tight box that was supplied with humidified 95% O2/5% CO2. For control retinas, 0.1% DMSO was added to the incubation medium, and for others, the incubation medium contained either 250 μM F2502-0030 (compound #1) or F5897-0190 (compound #7). These compounds were first dissolved in DMSO at 250 mM concentration, and 0.1% of this stock solution was added to the incubation medium (Ames’ medium). Stock solution was stored at −20 °C and used within a week. After incubation, retinas were placed on the ex vivo ERG specimen holder and perfused with Ames’ medium (saturated with 95% O2/5% CO2) at 1.5 ml/min at 35 °C. Ames’ medium was supplemented with 100 μM BaCl2 and 40 μM DL-AP4 (Tocris Bioscience) to isolate the photoreceptor component of the ERG signal. Responses were recorded to 5 ms flashes of light (630 nm) ranging from 276 to 308,534 photons μm^−2, corresponding to 1 to 1100 photons μm^−2 at 500 nm ([64]). Sensitivity of rod photoreceptors was determined in three ways: (1) sF = peak amplitude of dim flash response divided by flash energy (1 photon μm^−2); (2) SF = sF/Rmax, where Rmax is the maximal response amplitude measured at the plateau from a saturated rod response; (3) I1/2: flash energy required to elicit 50% of the Rmax determined by fitting a Naka-Rushton function to flash energy-amplitude data.

Molecules are shown by their SMILES. Marks after values point to notes of the source that are not given here.

rhodopsin (isorhodopsin) dimerization, sequence (P08100 whole entry, the tested form may be a part): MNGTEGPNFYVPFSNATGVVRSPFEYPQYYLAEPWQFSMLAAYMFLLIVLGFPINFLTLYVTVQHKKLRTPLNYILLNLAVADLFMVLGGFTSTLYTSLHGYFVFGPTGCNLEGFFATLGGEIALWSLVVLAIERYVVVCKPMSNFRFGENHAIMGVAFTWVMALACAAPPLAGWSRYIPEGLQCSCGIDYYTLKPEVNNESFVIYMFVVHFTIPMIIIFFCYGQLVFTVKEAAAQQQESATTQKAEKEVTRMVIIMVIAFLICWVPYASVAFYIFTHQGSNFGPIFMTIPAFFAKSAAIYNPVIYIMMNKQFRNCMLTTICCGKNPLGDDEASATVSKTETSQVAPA

With `O=C(CSc1nnc(NC(=O)Cc2ccc(F)cc2)s1)NO` [#1], the EC50 (commonly the concentration that produces a half-maximal response) in series [1] is 2.34 µM. Besides, in series [2], the “effect on kinetics of rod light responses” value is reported as “did not substantially affect the kinetics of responses”. In series [2] (5 h incubation, N = 4 retinas), the Rmax is on record as 320 ± 80 ^a μV. The “half-saturating I1/2 from best-fitting Michaelis–Menten equation to mean normalized amplitudes” value in series [2] (Fig. 5F) is 37 photons μm^−2. Besides, in series [2] (N = 4), the “SF (fractional sensitivity, sF/rmax)” value was 5.0 ± 0.3 ^a %/photons∙μm^−2 and the “sF (absolute sensitivity)” value was 13 ± 5 ^a μV/photons∙μm^−2. Moreover, the I1/2 in series [2] (from individual retinas, N = 4) is listed as 37 ± 2 ^a photons∙μm^−2. Moreover, the tp in series [2] (time-to-peak of dim flash (1 photon μm^−2), N = 4) is 163 ± 12 ms.

Source of the values: paper PMC8665362, “Identification of small-molecule allosteric modulators that act as enhancers/disrupters of rhodopsin oligomerization” (The Journal of Biological Chemistry, 2021).
